Measurements: US10233173B2, “Substituted 1,2,3-triazoles as NR2B-selective NMDA modulators” (JANSSEN PHARMACEUTICA NV, priority 2016, dated 2019)

Biological target: human GluN1/GluN2B NMDA receptors (Homo sapiens, UniProt Q05586+Q13224)
Test: Cell-based calcium flux (FLIPR) assay on cloned human NR1/NR2B ion channels expressed in mammalian cells
Settings: standard assay
Method in brief: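 Calcium influx followed by FLIPR fluorescence after 5 min compound exposure and a further 5 min co-agonist challenge: 10 μM glycine with glutamate at ~EC80 (standard) or EC40 (HTS).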

[1] = glutamate at ~EC80, FLIPR calcium flux
[2] = human GluN1/GluN2B, calcium flux (FLIPR), glutamate ~EC80

Chain of human GluN1/GluN2B NMDA receptors (Q13224 27-1484, other chains not shown): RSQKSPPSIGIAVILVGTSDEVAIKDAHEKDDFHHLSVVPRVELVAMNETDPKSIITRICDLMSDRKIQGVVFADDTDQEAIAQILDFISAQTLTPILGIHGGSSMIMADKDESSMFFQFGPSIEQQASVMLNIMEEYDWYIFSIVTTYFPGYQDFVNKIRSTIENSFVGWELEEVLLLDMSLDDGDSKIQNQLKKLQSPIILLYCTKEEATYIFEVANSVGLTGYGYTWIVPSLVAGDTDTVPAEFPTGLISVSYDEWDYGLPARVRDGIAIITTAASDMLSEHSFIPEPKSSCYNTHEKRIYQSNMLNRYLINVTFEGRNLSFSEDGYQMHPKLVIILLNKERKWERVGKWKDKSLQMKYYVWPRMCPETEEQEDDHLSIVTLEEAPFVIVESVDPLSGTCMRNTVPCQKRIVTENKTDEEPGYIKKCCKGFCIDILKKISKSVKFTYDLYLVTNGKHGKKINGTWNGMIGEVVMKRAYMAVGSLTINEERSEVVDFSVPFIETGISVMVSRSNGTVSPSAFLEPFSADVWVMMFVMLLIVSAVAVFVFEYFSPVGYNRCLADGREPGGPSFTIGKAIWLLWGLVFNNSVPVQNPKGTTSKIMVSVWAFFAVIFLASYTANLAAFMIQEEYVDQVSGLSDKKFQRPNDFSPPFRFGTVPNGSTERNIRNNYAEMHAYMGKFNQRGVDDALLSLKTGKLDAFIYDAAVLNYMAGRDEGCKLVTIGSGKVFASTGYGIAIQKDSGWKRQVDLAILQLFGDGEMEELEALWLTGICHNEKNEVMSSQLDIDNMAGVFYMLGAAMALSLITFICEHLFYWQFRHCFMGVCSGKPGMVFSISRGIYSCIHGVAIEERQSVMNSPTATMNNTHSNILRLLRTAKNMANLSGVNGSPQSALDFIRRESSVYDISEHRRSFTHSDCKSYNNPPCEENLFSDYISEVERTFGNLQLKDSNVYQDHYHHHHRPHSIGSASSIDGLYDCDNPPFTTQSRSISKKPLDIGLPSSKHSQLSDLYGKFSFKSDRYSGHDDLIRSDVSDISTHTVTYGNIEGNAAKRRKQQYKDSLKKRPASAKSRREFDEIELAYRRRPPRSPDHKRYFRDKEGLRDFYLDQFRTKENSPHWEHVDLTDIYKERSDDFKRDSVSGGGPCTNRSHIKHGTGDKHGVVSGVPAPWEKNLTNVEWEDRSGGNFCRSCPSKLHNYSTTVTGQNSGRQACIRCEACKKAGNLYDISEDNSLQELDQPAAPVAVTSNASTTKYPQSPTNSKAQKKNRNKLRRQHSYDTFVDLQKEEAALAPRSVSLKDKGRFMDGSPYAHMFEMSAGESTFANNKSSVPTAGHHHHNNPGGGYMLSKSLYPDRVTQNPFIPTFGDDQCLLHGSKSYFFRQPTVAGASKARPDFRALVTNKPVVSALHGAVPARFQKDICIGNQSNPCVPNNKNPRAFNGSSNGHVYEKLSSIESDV

| Compound | IC50 [1] | IC50 [2] |
| --- | --- | --- |
| Cc1nc(OCc2cn(-c3ccc(F)c(C(F)(F)F)c3)nn2)ncc1F [Example 445, 5-Fluoro-2-[[1-[4-fluoro-3-(trifluoromethyl)phenyl]triazol-4-yl]methoxy]-4-methyl-pyrimidine] | 0.006 µM | – |
| FC(F)(F)c1cnc(OCc2cn(-c3ccc(C(F)(F)F)s3)nn2)nc1 [Example 670, 5-(Trifluoromethyl)-2-((1-(5-(trifluoromethyl)thiophen-2-yl)-1H-1,2,3-triazol-4-yl)methoxy)pyrimidine] | 0.063 µM | – |
| Cc1cnc(OCc2cn(-c3cc(C)ccn3)nn2)nc1 [Example 662, 5-Methyl-2-[[1-(4-methyl-2-pyridyl)triazol-4-yl]methoxy]pyrimidine] | > 2.99 µM | – |
| Cc1cnc(OCc2cn(-c3cccc(C(F)(F)F)c3)nn2)nc1C [Example 290, 4,5-Dimethyl-2-[[1-[3-(trifluoromethyl)phenyl]triazol-4-yl]methoxy]pyrimidine] | – | 0.007 µM |
| Cc1cccc(-n2cc(COc3ncc(F)c(C)n3)nn2)c1 [Example 252, 5-Fluoro-4-methyl-2-[[1-(m-tolyl)triazol-4-yl]methoxy]pyrimidine] | – | 0.065 µM |
| Cc1nc(OCc2cn(-c3cccc(C(F)F)c3)nn2)ncc1F [Example 278, 2-[[1-[3-(Difluoromethyl)phenyl]triazol-4-yl]methoxy]-5-fluoro-4-methyl-pyrimidine] | – | 0.042 µM |
| CCc1cnc(OCc2cn(-c3ccnc(C)c3)nn2)nc1 [Example 664, 5-Ethyl-2-[[1-(2-methyl-4-pyridyl)triazol-4-yl]methoxy]pyrimidine] | 0.169 µM | – |
| Fc1ccc(-n2cc(COc3nccc(-c4ccco4)n3)nn2)cc1C(F)F [Example 424, 2-[[1-[3-(Difluoromethyl)-4-fluoro-phenyl]triazol-4-yl]methoxy]-4-(2-furyl)pyrimidine] | 0.141 µM | – |
| Cc1nc(OCc2cn(-c3ccc(F)c(C(C)(F)F)c3)nn2)ncc1F [Example 575, 2-[[1-[3-(1,1-Difluoroethyl)-4-fluoro-phenyl]triazol-4-yl]methoxy]-5-fluoro-4-methyl-pyrimidine] | 0.006 µM | – |
| Cc1cccc(-n2cc(COc3ncc(Cl)cn3)nn2)c1F [Example 468, 5-Chloro-2-[[1-(2-fluoro-3-methyl-phenyl)triazol-4-yl]methoxy]pyrimidine] | 1.25 µM | – |
| Cc1cc(-n2cc(COc3ncc(C4CC4)cn3)nn2)c(F)cc1F [Example 658, 5-Cyclopropyl-2-[[1-(2,4-difluoro-5-methyl-phenyl)triazol-4-yl]methoxy]pyrimidine] | 0.424 µM | – |
| CCc1cnc(OCc2cn(-c3cccc(OC(F)(F)F)c3)nn2)nc1 [Example 351, 5-Ethyl-2-[[1-[3-(trifluoromethoxy)phenyl]triazol-4-yl]methoxy]pyrimidine] | – | 0.015 µM |
| FC(F)Oc1cc(-n2cc(COc3ncc(N4CCC4)cn3)nn2)ccc1Cl [Example 391, 5-(Azetidin-1-yl)-2-((1-(4-chloro-3-(difluoromethoxy)phenyl)-1H-1,2,3-triazol-4-yl)methoxy)pyrimidine] | – | 0.022 µM |
| CCc1cnc(OCc2cn(-c3cccc(C(C)C)c3)nn2)nc1 [Example 267, 5-Ethyl-2-[[1-(3-isopropylphenyl)triazol-4-yl]methoxy]pyrimidine] | – | 0.012 µM |
| CC(C)c1ccnc(OCc2cn(-c3ccc(F)c(OC(F)F)c3)nn2)n1 [Example 496, 2-[[1-[3-(Difluoromethoxy)-4-fluoro-phenyl]triazol-4-yl]methoxy]-4-isopropyl-pyrimidine] | 0.114 µM | – |
| Cc1cnc(OCc2cn(-c3cccc(Cl)c3F)nn2)nc1 [Example 610, 2-[[1-(3-Chloro-2-fluoro-phenyl)triazol-4-yl]methoxy]-5-methyl-pyrimidine] | 1.03 µM | – |
| FC(F)c1cc(-n2cc(COc3ncc(C4CC4)cn3)nn2)ccc1Cl [Example 630, 2-[[1-[4-Chloro-3-(difluoromethyl)phenyl]triazol-4-yl]methoxy]-5-cyclopropyl-pyrimidine] | 0.013 µM | – |
| FC(F)c1cc(-n2cc(COc3ccncn3)nn2)ccc1Cl [Example 12, 4-[[1-[4-Chloro-3-(difluoromethyl)phenyl]triazol-4-yl]methoxy]pyrimidine] | – | 2.23 µM |
| Cc1cnc(OCc2cn(-c3ccc4c(c3)OC(F)(F)O4)nn2)nc1 [Example 354, 2-[[1-(2,2-Difluoro-1,3-benzodioxol-5-yl)triazol-4-yl]methoxy]-5-methyl-pyrimidine] | – | 0.073 µM |
| CC(F)(F)c1cccc(-n2cc(COc3ncc(F)cn3)nn2)c1 [Example 295, 2-[[1-[3-(1,1-Difluoroethyl)phenyl]triazol-4-yl]methoxy]-5-fluoro-pyrimidine] | – | 0.061 µM |
| Cc1ccc(OCc2cn(-c3ccc(F)c(C(F)(F)F)c3)nn2)nc1 [Example 431, 2-[[1-[4-Fluoro-3-(trifluoromethyl)phenyl]triazol-4-yl]methoxy]-5-methyl-pyridine] | 0.101 µM | – |

| Compound | IC50 [1] | IC50 [2] |
| --- | --- | --- |
| Clc1ccc(-n2cc(COc3ncc(Cl)cn3)nn2)cc1 [Example 225, 5-Chloro-2-[[1-(4-chlorophenyl)triazol-4-yl]methoxy]pyrimidine] | – | 0.07 µM |
| Fc1ccc(-n2cc(COc3nccc(N4CC[C@@H](F)C4)n3)nn2)cc1OC(F)F [Example 512, (R)-2-[[1-[3-(Difluoromethoxy)-4-fluoro-phenyl]triazol-4-yl]methoxy]-4-[(3R)-3-fluoropyrrolidin-1-yl]pyrimidine] | 0.308 µM | – |
| Cc1ccc(OCc2cn(-c3ccc(F)c(C(C)(F)F)c3)nn2)nc1 [Example 558, 2-[[1-[3-(1,1-Difluoroethyl)-4-fluoro-phenyl]triazol-4-yl]methoxy]-5-methyl-pyridine] | 0.125 µM | – |
| Cc1ccc(-n2cc(COc3ncc(C)cn3)nn2)cc1 [Example 260, 5-Methyl-2-[[1-(p-tolyl)triazol-4-yl]methoxy]pyrimidine] | – | 0.271 µM |
| Fc1ccc(-n2cc(COc3nccc(C(F)F)n3)nn2)cc1C(F)F [Example 402, 4-(Difluoromethyl)-2-[[1-[3-(difluoromethyl)-4-fluoro-phenyl]triazol-4-yl]methoxy]pyrimidine] | 0.051 µM | – |
| CC(F)(F)c1cc(-n2cc(COc3ncc(N4CCOCC4)cn3)nn2)ccc1F [Example 187, 4-(2-((1-(3-(1,1-Difluoroethyl)-4-fluorophenyl)-1H-1,2,3-triazol-4-yl)methoxy)pyrimidin-5-yl)morpholine] | – | 0.088 µM |
| CCc1cnc(OCc2cn(-c3cc(C)ccn3)nn2)nc1 [Example 663, 5-Ethyl-2-[[1-(4-methyl-2-pyridyl)triazol-4-yl]methoxy]pyrimidine] | 2.45 µM | – |
| Cc1cnc(OCc2cn(-c3ccc(F)c(OC(F)F)c3)nn2)nc1N [Example 514, 2-[[1-[3-(Difluoromethoxy)-4-fluoro-phenyl]triazol-4-yl]methoxy]-5-methyl-pyrimidin-4-amine] | 0.005 µM | – |
| CN(C)c1ccnc(OCc2cn(-c3ccc(F)c(C(F)(F)F)c3)nn2)n1 [Example 450, 2-[[1-[4-Fluoro-3-(trifluoromethyl)phenyl]triazol-4-yl]methoxy]-N,N-dimethyl-pyrimidin-4-amine] | 0.03 µM | – |
| CCNc1ccnc(OCc2cn(-c3ccc(F)c(C(F)F)c3)nn2)n1 [Example 691, N-Ethyl-2-((1-(3-(difluoromethyl)-4-fluorophenyl)-1H-1,2,3-triazol-4-yl)methoxy)pyrimidin-4-amine] | 0.006 µM | – |
| CNc1nc(OCc2cn(-c3ccc(Cl)c(OC(F)F)c3)nn2)ncc1F [Example 389, 2-[[1-[4-Chloro-3-(difluoromethoxy)phenyl]triazol-4-yl]methoxy]-5-fluoro-N-methyl-pyrimidin-4-amine] | – | 0.033 µM |
| CC(=O)c1cnc(OCc2cn(-c3cccc(OC(F)(F)F)c3)nn2)nc1 [Example 344, 1-[2-[[1-[3-(Trifluoromethoxy)phenyl]triazol-4-yl]methoxy]pyrimidin-5-yl]ethanone] | – | 0.062 µM |
| FC(F)c1cccc(-n2cc(COc3ncc(C4CC4)cn3)nn2)c1 [Example 282, 5-Cyclopropyl-2-[[1-[3-(difluoromethyl)phenyl]triazol-4-yl]methoxy]pyrimidine] | – | 0.011 µM |
| Cc1cccc(OCc2cn(-c3ccc(F)c(C(C)(F)F)c3)nn2)n1 [Example 556, 2-[[1-[3-(1,1-Difluoroethyl)-4-fluoro-phenyl]triazol-4-yl]methoxy]-6-methyl-pyridine] | 0.098 µM | – |
| Fc1cnc(OCc2cn(-c3cccc(OC(F)(F)F)c3)nn2)nc1 [Example 348, 5-Fluoro-2-[[1-[3-(trifluoromethoxy)phenyl]triazol-4-yl]methoxy]pyrimidine] | – | 0.447 µM |
| FCCCc1cnc(OCc2cn(-c3ccc(Cl)c(C(F)F)c3)nn2)nc1 [Example 637, 2-[[1-[4-Chloro-3-(difluoromethyl)phenyl]triazol-4-yl]methoxy]-5-(3-fluoropropyl)pyrimidine] | 0.011 µM | – |
| Fc1ccc(-n2cc(COc3ncc(N4CC(F)(F)C4)cn3)nn2)cc1C(F)F [Example 419, 5-(3,3-Difluoroazetidin-1-yl)-2-((1-(3-(difluoromethyl)-4-fluorophenyl)-1H-1,2,3-triazol-4-yl)methoxy)pyrimidine] | 0.029 µM | – |
| Fc1ccc(-n2cc(COc3ccc(C(F)(F)F)cn3)nn2)cc1OC(F)F [Example 119, 2-[[1-[3-(Difluoromethoxy)-4-fluoro-phenyl]triazol-4-yl]methoxy]-5-(trifluoromethyl)pyridine] | – | 0.114 µM |
| FC(F)c1cccc(-n2cc(COc3nccc(N4CCCC4)n3)nn2)c1 [Example 284, 2-[[1-[3-(Difluoromethyl)phenyl]triazol-4-yl]methoxy]-4-pyrrolidin-1-yl-pyrimidine] | – | 0.094 µM |
| CC(C)c1ccnc(OCc2cn(-c3cccc(C(F)F)c3)nn2)n1 [Example 270] | – | 0.617 µM |
| CC(F)(F)c1cc(-n2cc(CNc3ncc(C4CC4)cn3)nn2)ccc1F [Example 209, 5-Cyclopropyl-N-[[1-[3-(1,1-difluoroethyl)-4-fluoro-phenyl]triazol-4-yl]methyl]pyrimidin-2-amine] | – | 0.104 µM |
